From paper PMC10176470, “Engaging a Non-catalytic Cysteine Residue Drives Potent and Selective Inhibition of Caspase-6” (Journal of the American Chemical Society, 2023)

Tests used:
Assay in all cases: SILAC proteomics / in-gel fluorescence, competition of probe 13-t labeling by 3a
[1] = biological target: proteins of HEK293T cells transiently overexpressing caspase-6 (Homo sapiens, UniProt Q13148); conditions: Comp; protein TARDBP Q13148
[2] = biological target: T1, proteins of HEK293T cells transiently overexpressing caspase-6 (Homo sapiens, UniProt O75844)
T1 sequence (O75844 1-475): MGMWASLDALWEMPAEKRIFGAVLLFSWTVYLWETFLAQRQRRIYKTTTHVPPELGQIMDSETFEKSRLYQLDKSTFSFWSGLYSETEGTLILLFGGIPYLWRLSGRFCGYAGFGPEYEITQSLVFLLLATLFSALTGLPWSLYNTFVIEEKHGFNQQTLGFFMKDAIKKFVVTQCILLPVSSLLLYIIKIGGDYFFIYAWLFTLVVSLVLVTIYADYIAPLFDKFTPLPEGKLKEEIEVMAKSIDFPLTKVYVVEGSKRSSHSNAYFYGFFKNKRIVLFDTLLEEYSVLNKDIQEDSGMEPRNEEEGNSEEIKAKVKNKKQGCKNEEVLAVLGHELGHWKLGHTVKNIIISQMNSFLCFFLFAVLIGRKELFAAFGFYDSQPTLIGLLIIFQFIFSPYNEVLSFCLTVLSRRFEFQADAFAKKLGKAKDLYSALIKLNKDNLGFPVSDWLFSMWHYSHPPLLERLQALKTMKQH

[3] = biological target: proteins of HEK293T cells transiently overexpressing caspase-6 (Homo sapiens, UniProt P61247); conditions: Comp; protein RPS3A P61247
[4] = biological target: proteins of HEK293T cells transiently overexpressing caspase-6 (Homo sapiens, UniProt Q9Y2X3); conditions: Comp; protein NOP58 Q9Y2X3
Chain of proteins of HEK293T cells transiently overexpressing caspase-6 (Homo sapiens, UniProt Q9Y2X3) (Q9Y2X3 whole entry): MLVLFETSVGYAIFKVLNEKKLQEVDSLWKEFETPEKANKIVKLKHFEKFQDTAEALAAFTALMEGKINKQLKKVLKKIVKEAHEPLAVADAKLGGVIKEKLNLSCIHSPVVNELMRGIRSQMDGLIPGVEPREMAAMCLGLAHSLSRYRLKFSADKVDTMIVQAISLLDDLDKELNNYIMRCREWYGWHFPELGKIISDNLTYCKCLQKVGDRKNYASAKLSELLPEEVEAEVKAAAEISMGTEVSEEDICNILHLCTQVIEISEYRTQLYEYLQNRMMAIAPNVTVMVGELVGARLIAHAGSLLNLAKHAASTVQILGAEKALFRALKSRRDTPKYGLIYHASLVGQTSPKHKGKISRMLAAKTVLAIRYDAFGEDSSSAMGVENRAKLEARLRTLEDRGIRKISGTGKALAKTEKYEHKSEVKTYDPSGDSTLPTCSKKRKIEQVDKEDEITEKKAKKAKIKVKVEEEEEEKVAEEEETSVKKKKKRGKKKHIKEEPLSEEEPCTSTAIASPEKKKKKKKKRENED

[5] = biological target: proteins of HEK293T cells transiently overexpressing caspase-6 (Homo sapiens, UniProt P11388); conditions: Comp; protein TOP2A P11388
Chain of proteins of HEK293T cells transiently overexpressing caspase-6 (Homo sapiens, UniProt P11388) (P11388 whole entry): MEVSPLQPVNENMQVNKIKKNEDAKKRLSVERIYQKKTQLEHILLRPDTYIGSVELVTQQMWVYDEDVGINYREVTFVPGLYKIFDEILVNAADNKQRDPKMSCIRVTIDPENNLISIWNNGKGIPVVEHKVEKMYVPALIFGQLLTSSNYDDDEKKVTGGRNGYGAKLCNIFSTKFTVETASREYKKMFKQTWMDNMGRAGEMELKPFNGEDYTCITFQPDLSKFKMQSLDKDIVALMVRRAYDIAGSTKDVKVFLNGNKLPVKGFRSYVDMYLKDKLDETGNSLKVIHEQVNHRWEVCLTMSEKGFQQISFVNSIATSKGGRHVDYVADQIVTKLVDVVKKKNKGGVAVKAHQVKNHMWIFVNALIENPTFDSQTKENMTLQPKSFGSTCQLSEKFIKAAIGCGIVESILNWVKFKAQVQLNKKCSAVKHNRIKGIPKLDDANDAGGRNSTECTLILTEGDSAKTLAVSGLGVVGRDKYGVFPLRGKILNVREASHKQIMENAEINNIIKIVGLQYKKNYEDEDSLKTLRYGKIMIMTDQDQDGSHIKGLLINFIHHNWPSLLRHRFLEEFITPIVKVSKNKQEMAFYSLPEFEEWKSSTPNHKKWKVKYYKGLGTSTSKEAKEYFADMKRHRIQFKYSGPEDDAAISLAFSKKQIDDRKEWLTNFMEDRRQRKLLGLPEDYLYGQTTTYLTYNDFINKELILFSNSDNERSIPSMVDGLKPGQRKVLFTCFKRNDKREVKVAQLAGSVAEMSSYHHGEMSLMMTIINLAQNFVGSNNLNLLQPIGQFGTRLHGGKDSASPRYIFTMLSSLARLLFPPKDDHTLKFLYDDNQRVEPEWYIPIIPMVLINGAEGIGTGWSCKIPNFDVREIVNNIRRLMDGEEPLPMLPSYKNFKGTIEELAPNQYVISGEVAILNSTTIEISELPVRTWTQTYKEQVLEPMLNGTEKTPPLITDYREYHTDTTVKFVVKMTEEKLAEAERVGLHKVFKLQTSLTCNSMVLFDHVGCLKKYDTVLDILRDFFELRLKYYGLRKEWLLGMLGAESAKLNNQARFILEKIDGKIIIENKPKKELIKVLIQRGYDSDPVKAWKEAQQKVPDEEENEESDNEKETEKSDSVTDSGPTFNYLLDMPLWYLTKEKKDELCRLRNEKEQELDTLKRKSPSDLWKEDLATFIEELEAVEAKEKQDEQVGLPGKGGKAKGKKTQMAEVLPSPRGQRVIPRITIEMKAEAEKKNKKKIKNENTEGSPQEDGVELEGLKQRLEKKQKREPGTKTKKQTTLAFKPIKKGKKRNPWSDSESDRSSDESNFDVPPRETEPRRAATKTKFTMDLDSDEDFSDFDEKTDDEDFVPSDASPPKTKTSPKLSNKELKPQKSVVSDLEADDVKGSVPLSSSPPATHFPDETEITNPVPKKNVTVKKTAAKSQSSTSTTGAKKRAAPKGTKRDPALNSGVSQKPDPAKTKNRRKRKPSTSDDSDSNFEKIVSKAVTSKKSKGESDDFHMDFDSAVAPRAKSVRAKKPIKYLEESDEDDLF

[6] = biological target: proteins of HEK293T cells transiently overexpressing caspase-6 (Homo sapiens, UniProt P62701); conditions: Comp; protein RPS4X P62701
[7] = biological target: proteins of HEK293T cells transiently overexpressing caspase-6 (Homo sapiens, UniProt P38646); conditions: Comp; protein HSPA9 P38646
Chain of proteins of HEK293T cells transiently overexpressing caspase-6 (Homo sapiens, UniProt P38646) (P38646 47-679): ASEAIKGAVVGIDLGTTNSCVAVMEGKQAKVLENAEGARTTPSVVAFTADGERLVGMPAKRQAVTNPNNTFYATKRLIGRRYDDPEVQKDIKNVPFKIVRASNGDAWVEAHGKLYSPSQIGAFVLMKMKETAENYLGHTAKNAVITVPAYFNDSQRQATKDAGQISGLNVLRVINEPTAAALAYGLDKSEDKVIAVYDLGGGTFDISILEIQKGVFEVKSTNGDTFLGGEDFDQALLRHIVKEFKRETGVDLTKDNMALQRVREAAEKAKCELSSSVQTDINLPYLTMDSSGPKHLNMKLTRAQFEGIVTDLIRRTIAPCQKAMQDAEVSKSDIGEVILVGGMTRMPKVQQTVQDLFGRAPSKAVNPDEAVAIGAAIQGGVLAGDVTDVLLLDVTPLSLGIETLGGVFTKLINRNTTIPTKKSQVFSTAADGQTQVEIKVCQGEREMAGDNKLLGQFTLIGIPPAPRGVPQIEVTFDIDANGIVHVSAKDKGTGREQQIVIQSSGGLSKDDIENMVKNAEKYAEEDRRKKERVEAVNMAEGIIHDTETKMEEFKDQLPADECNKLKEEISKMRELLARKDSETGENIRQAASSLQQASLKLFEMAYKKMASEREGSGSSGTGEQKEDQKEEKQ

[8] = biological target: proteins of HEK293T cells transiently overexpressing caspase-6 (Homo sapiens, UniProt P62888); conditions: Comp; protein RPL30 P62888
[9] = biological target: T2, proteins of HEK293T cells transiently overexpressing caspase-6 (Homo sapiens, UniProt P30041); conditions: Comp; protein PRDX6 P30041
T2 sequence (P30041 1-224): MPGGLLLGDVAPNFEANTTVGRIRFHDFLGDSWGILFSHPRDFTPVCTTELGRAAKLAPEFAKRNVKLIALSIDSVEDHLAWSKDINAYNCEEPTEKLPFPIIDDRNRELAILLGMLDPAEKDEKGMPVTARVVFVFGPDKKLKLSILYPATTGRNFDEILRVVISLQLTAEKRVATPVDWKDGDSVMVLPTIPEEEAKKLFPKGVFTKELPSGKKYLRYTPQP

[10] = biological target: proteins of HEK293T cells transiently overexpressing caspase-6 (Homo sapiens, UniProt Q15029); conditions: Comp; protein EFTUD2 Q15029
Chain of proteins of HEK293T cells transiently overexpressing caspase-6 (Homo sapiens, UniProt Q15029) (Q15029 whole entry): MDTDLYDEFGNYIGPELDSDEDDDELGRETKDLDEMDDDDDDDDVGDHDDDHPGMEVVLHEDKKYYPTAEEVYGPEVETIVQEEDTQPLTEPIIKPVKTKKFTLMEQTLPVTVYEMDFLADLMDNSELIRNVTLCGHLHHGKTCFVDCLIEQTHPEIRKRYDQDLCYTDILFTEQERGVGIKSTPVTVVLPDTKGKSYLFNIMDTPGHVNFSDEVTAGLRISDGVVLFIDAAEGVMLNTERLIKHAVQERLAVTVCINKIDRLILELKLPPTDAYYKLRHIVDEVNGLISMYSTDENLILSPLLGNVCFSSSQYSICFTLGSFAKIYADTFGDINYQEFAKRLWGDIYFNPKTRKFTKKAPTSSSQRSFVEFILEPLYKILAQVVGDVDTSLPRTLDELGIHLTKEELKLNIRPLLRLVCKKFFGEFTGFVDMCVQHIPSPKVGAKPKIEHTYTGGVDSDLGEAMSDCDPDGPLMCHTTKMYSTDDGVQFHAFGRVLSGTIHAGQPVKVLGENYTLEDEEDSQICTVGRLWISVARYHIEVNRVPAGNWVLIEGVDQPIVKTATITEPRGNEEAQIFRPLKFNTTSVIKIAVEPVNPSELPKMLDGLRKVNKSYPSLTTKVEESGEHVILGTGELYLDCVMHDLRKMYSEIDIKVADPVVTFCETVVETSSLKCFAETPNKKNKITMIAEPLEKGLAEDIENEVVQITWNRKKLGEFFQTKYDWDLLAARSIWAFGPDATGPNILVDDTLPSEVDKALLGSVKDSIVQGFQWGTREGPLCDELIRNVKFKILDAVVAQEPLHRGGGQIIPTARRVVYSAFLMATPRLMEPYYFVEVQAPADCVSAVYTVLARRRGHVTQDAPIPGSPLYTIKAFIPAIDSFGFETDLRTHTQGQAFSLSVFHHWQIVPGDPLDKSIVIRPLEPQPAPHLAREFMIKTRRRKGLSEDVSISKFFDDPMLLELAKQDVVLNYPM

[11] = biological target: proteins of HEK293T cells transiently overexpressing caspase-6 (Homo sapiens, UniProt O43143); conditions: Comp; protein DHX15 O43143
Chain of proteins of HEK293T cells transiently overexpressing caspase-6 (Homo sapiens, UniProt O43143) (O43143 whole entry): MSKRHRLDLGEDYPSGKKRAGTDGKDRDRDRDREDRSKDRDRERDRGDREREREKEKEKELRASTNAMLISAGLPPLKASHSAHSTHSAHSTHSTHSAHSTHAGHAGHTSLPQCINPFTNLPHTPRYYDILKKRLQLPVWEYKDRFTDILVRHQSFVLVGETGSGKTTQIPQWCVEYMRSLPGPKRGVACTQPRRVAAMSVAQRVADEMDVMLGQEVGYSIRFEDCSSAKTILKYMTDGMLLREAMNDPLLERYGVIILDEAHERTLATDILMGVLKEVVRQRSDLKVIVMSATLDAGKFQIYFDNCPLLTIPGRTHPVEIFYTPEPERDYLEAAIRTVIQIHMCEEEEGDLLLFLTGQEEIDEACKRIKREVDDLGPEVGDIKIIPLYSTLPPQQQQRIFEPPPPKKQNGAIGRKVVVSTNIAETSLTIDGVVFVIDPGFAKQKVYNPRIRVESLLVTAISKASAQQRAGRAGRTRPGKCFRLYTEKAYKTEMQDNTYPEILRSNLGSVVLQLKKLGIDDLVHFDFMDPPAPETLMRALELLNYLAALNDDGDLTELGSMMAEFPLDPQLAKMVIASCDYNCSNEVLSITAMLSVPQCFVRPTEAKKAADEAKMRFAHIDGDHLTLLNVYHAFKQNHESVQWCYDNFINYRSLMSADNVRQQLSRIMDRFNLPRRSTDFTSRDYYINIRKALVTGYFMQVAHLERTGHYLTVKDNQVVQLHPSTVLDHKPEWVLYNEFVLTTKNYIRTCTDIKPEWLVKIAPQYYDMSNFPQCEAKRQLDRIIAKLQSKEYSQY

[12] = biological target: proteins of HEK293T cells transiently overexpressing caspase-6 (Homo sapiens, UniProt Q9P258); conditions: Comp; protein RCC2 Q9P258
[13] = biological target: proteins of HEK293T cells transiently overexpressing caspase-6 (Homo sapiens, UniProt P62241); conditions: Comp; protein RPS8 P62241
[14] = protein ZMPSTE24 (O75844), Exp Comp, analysis C6, p 0.5000, 2 peptides

Chain of proteins of HEK293T cells transiently overexpressing caspase-6 (Homo sapiens, UniProt Q13148) (Q13148 whole entry): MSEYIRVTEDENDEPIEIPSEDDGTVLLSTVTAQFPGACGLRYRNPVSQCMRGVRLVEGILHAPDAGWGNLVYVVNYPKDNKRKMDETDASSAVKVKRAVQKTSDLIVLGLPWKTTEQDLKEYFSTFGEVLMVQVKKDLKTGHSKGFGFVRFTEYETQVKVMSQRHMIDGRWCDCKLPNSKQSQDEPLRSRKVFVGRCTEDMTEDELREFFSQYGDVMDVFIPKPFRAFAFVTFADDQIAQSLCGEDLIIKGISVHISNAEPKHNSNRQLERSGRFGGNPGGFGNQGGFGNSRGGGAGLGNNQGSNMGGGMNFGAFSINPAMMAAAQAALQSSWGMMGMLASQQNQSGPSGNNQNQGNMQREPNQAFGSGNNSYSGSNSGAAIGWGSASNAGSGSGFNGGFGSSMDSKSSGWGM

**Q.** For `C=CS(=O)(=O)N1C[C@H](C(=O)Nc2ccc(OC(F)(F)F)cc2)C[C@@H](c2ccccc2)C1` [3a], which enrich.exp.med [1] is on record?
**A.** 0.8327

**Q.** What about the enrich.exp.med ([2]; Comp, protein ZMPSTE24 O75844) of the same molecule?
**A.** 1.01

**Q.** And the enrich.exp.med.lin [2, 14]?
**A.** 2.0144

**Q.** What about the enrich.exp.med.log2 [2, 14] of the same molecule?
**A.** 1.01

**Q.** And the enrich.exp.med [3]?
**A.** 0.7684

**Q.** And the enrich.exp.med [4]?
**A.** 0.7213

**Q.** What about the enrich.exp.med [5] of the same molecule?
**A.** 0.7274

**Q.** What about the enrich.exp.med [6] of the same molecule?
**A.** 0.5823

**Q.** And the enrich.exp.med [7]?
**A.** 0.6522

**Q.** And the enrich.exp.med [8]?
**A.** 0.6036

**Q.** What about the enrich.exp.med [9] of the same molecule?
**A.** 0.6066

**Q.** And the enrich.exp.med [10]?
**A.** 0.5983

**Q.** And the enrich.exp.med [11]?
**A.** 0.7591

**Q.** What about the enrich.exp.med [12] of the same molecule?
**A.** 0.5769

**Q.** What about the enrich.exp.med [13] of the same molecule?
**A.** 0.6264
